Measurements taken from patent US12234208B2, “3,4-dihydroxy-n-(1′-benzyl-2′-hydroxyethyl)-2-methylpyridine chloride, and synthesis and use thereof” (HANGZHOU ZEDE PHARMA-TECH CO. LTD., priority 2020, dated 2025).
Entries after “also recorded” stand apart in the source; their conditions may differ.

Experiments:
chronic MPTP mouse model [1] = test: Traction test in chronic MPTP mouse model; type: in vivo, C57/BL mice
Excerpt: Injection was implemented every 3.5 days for 5 weeks. MPTP was converted into metabolite MPP^+ by monoamine oxidase B in glial cells after crossing the blood-brain barrier. Due to its high affinity for dopamine transporters, MPP^+ can easily enter dopaminergic neurons. By inhibiting the toxic effect of the mitochondrial complex I, it can cause oxidative stress and break intracellular calcium homeostasis, thus causing the apoptosis or necrosis of dopaminergic neurons, and finally achieving the goal of simulating PD. Probenecid was used to prevent the rapid clearance and excretion of MPTP in the brain and kidneys. In the process of model preparation, the amount of probenecid had no significant influence on the content of the dopamine in the brain. After modeling, the mice were administrated (p.o.) with the drug for one month. The two forepaws of the mice were suspended on a horizontal metal wire (5 mm in diameter and 30 cm from the ground), and the time for mice to fall from the metal wire was recorded, wherein a time over 60 seconds was counted as 60 seconds. The mice were trained twice a day before the test. […] Finally, the scores were calculated and the time for the mice to fall from the metal wire were recorded, wherein a time over 60 seconds was counted as 60 seconds.

chronic MPTP mouse model [2] = test: Morris water maze test in chronic MPTP mouse model; type: in vivo, C57/BL mice; conditions: Compound A 100 mg/kg/d p.o. for one month; FIG. 2; 100 mg/kg/day
Description: A chronic MPTP (1-methyl-4-phenyl-1,2,3,6-tetrahydropyridine) mouse model was prepared to simulate PD. 250 mg/kg probenecid was intraperitoneally injected into the mice and then 25 mg/kg MPTP was intraperitoneally injected 0.5 hour later. Injection was implemented every 3.5 days for 5 weeks. MPTP was converted into metabolite MPP^+ by monoamine oxidase B in glial cells after crossing the blood-brain barrier. Due to its high affinity for dopamine transporters, MPP^+ can easily enter dopaminergic neurons. […]
The Morris water maze test can measure the changes in cognitive and memory ability. […] A camera with a display system was placed above the water maze, and the computer automatically tracked the timing and recorded the swimming track. […] The videos of the swimming path were recorded by the camera and computer, and the time of finding the platform from the entry point, namely the latency of escaping to the platform, was recorded. […] If they could not find and climb onto the platform in 90 seconds, the mice were artificially guided to find the platform and stay on the platform for 10 seconds, and the latency was recorded as 90 seconds. […] The latency was calculated on the average of four training sessions per day. […]

Row | SMILES | suspension time compared with the chronic MPTP model (chronic MPTP mouse model [1]; Pramipexol 0.075 mg/kg/d p.o. for one month after modeling) | suspension time compared with the chronic MPTP model control group (chronic MPTP mouse model [1]; Compound A 25 mg/kg/d p.o. for one month after modeling) | suspension score compared with the chronic MPTP model control group (chronic MPTP mouse model [1]; Compound A 25 mg/kg/d p.o. for one month, FIG. 1) | suspension time compared with the chronic MPTP model control group (chronic MPTP mouse model [1]; Compound A 100 mg/kg/d p.o. for one month after modeling) | muscle strength and coordination (conclusion) (chronic MPTP mouse model [1]; chronic MPTP mouse model, dose not given) | cognitive function of PD model animals (water maze latency) (chronic MPTP mouse model [2])
1 | CCCN[C@H]1CCc2nc(N)sc2C1 [Pramipexol, reference compound] | decreased |  |  |  |  | 
2 | Cc1c(O)c(O)cc[n+]1[C@@H](CO)Cc1ccccc1 [Compound A, (R)-3,4-dihydroxyl-N-(1′-benzyl-2′-hydroxyethyl)-2-methyl pyridine chloride] |  | no significant difference | increased | no significant difference | tendency to improve muscle strength and coordination | may improve the cognitive function; also recorded: partially improve the cognitive function
